What all share (assay type): functional, organism-based
Settings in all cases: Aorta

Assay [1] is filed under the species Rattus norvegicus. Put plainly: Vasorelaxation effect against norepinephrine-induced contraction of rat thoracic aortic ring with endothelium at 100 uM.
For assay [2], the species on record is Rattus norvegicus. The experiment in a line: Vasorelaxation effect against norepinephrine-induced contraction of rat thoracic aortic ring without endothelium at 100 uM.
Assay [3] is filed under the species Rattus norvegicus. Put plainly: Vasocontractile effect on norepinephrine-induced contraction of rat thoracic aortic ring with endothelium at 100 uM.
For assay [4], the species on record is Rattus norvegicus. Put plainly: Vasocontractile effect on norepinephrine-induced contraction of rat thoracic aortic ring without endothelium at 100 uM.

The source made the active and inactive calls. No cut-off for these calls is given here. Residues, ends and D or L forms follow the SMILES beside them.

Take `CC(C)C[C@@H]1NC(=O)CNC(=O)[C@@H]2CCCN2C(=O)[C@H](Cc2ccccc2)NC(=O)[C@H](C)NC(=O)[C@H](Cc2ccccc2)NC(=O)[C@H](Cc2c[nH]cn2)NC1=O` (cyclo(AFPGLHF)): the result in the assay listed under Rattus norvegicus [1] and in the assay filed under Rattus norvegicus [2] was Active.

Turning to `CC(C)C[C@@H]1NC(=O)CNC(=O)[C@@H]2CCCN2C(=O)[C@H](Cc2ccccc2)NC(=O)[C@H](C)NC(=O)[C@H](Cc2ccccc2)NC(=O)[C@H](CO)NC1=O` (cyclo(AFPGLSF)), the outcome in the assay listed under Rattus norvegicus [1] and in the assay filed under Rattus norvegicus [2] was Active.

As to `CC(C)[C@@H]1NC(=O)CNC(=O)[C@H](C)NC(=O)[C@H](Cc2c[nH]c3ccccc23)NC(=O)[C@H](C)NC1=O` (cyclo(AGVAW)), the outcome in the assay listed under Rattus norvegicus [3], in the assay filed under Rattus norvegicus [1] and in the assay filed under Rattus norvegicus [4] was Active.

With `CC(C)[C@@H]1NC(=O)CNC(=O)[C@H](C)NC(=O)[C@H](Cc2ccc(O)cc2)NC(=O)[C@H](CCCCN)NC1=O` (cyclo(AGVKY)), the result in the assay listed under Rattus norvegicus [1] and in the assay filed under Rattus norvegicus [2] was Active.

With `CC(C)[C@@H]1NC(=O)[C@@H]2CCCN2C(=O)[C@H](C(C)C)NC(=O)CNC(=O)[C@H](C)NC(=O)[C@H](Cc2c[nH]c3ccccc23)NC1=O` (cyclo(AGVPVW)), the outcome in the assay listed under Rattus norvegicus [1] and in the assay listed under Rattus norvegicus [2] was Active.

As for `C[C@@H]1NC(=O)[C@H](CO)NC(=O)[C@H](Cc2ccccc2)NC(=O)[C@@H]2CCCN2C(=O)[C@H](CCCCN)NC(=O)[C@H](CO)NC(=O)[C@H](CO)NC(=O)[C@H](Cc2ccc(O)cc2)NC(=O)[C@H](CO)NC1=O` (cyclo(ASYSSKPFS)), the result in the assay filed under Rattus norvegicus [1] and in the assay listed under Rattus norvegicus [2] was Active.

For the molecule `N=C(N)NCCC[C@@H]1NC(=O)[C@H](Cc2ccc(O)cc2)NC(=O)CNC(=O)[C@H](CO)NC(=O)[C@H](Cc2ccccc2)NC1=O` (cyclo(FSGYR)), the outcome in the assay listed under Rattus norvegicus [1] and in the assay filed under Rattus norvegicus [2] was Active.

(Values after ChEMBL document CHEMBL1149334, “Structure of a new cyclic nonapeptide, segetalin F, and vasorelaxant activity of segetalins from Vaccaria segetalis” (Bioorg Med Chem Lett, 2006).)
